pIC50: −log10 of the molar value.
target: human SGLT2 (Homo sapiens (Human), UniProt P31639); test: Inhibitory effects on human SGLT2 activities (14C-AMG uptake, sodium-dependent glucose transport assay); format: cell-based; conditions: CHO cells stably expressing hSGLT2, 37° C., 2 h, single determinations
Outline: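 CHO cells stably expressing hSGLT2 were preincubated 10 min at 37 °C in choline (Na+-free) buffer, then exposed 2 h at 37 °C to compound in Na+ uptake buffer with 8 μM 14C-AMG and 1 mM unlabeled AMG. Radioactivity was scintillation counted; IC50 came from nonlinear regression.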

human SGLT2, sequence (P31639 whole entry): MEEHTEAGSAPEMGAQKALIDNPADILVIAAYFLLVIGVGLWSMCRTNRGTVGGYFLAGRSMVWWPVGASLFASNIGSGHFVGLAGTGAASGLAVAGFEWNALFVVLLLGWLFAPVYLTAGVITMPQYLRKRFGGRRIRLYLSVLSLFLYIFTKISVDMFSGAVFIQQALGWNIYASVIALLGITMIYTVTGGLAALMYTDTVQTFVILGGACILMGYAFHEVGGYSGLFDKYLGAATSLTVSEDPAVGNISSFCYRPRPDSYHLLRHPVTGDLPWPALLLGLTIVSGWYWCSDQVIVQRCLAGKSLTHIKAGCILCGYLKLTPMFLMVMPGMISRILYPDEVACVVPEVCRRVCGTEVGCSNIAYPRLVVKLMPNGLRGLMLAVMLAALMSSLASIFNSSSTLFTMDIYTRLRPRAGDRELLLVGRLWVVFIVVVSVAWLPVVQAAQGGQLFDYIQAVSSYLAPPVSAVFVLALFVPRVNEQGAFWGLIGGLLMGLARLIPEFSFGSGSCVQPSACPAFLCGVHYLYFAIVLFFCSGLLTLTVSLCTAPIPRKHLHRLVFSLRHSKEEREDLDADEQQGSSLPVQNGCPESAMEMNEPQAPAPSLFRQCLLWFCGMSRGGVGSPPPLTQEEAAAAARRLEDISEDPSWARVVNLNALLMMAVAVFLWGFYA

SMILES	pIC50
CO[C@H]1O[C@@H](c2ccc(Cl)c(Cc3ccc4c(c3)OCCO4)c2)[C@H](O)[C@@H](O)[C@@H]1O [Example E092, (2S,3R,4R,5S,6S)-2-(4-Chloro-3-((2,3-dihydrobenzo[b][1,4]dioxin-6-yl)methyl)phenyl)-6-methoxy-tetrahydro-2H-pyran-3,4,5-triol]	8.06
COC1O[C@@H](c2ccc(Cl)c(Cc3ccc4c(c3)OCCO4)c2)[C@H](O)[C@@H](O)[C@@H]1O (stereo partly drawn) [Example E093, (2S,3R,4R,5S)-2-(4-Chloro-3-((2,3-dihydrobenzo[b][1,4]dioxin-6-yl)methyl)phenyl)-6-methoxytetrahydro-2H-pyran-3,4,5-triol]	7.77
CO[C@@H]1O[C@@H](c2ccc(Cl)c(Cc3ccc4c(c3)OCCO4)c2)[C@H](O)[C@@H](O)[C@@H]1O [Example E094, (2S,3R,4R,5S,6R)-2-(4-Chloro-3-((2,3-dihydrobenzo[b][1,4]dioxin-6-yl)methyl)phenyl)-6-methoxy-tetrahydro-2H-pyran-3,4,5-triol]	7.27
COc1cc(Cl)c(Cc2ccc3c(c2)OCCO3)cc1[C@@H]1O[C@H](OC)[C@@H](O)[C@H](O)[C@H]1O [Example E096, (2S,3R,4R,5S,6S)-2-(4-Chloro-5-((2,3-dihydrobenzo[b][1,4]dioxin-6-yl)methyl)-2-methoxyphenyl)-6-methoxy-tetrahydro-2H-pyran-3,4,5-triol]	7.73
COc1ccc(Cc2cc([C@@H]3O[C@H](OC)[C@@H](O)[C@H](O)[C@H]3O)c3c(c2Br)CCC3)cc1 [Example E097, (2S,3R,4R,5S,6S)-2-(7-Bromo-6-(4-methoxybenzyl)-2,3-dihydro-1H-inden-4-yl)-6-methoxy-tetrahydro-2H-pyran-3,4,5-triol]	8.42
CCc1ccc(C2OCc3ccc([C@@H]4O[C@H](CO)[C@@H](O)[C@H](O)[C@H]4O)cc32)cc1 (stereo partly drawn) [Example E099, (2S,3R,4R,5S,6R)-2-(3-(4-Ethylphenyl)-1,3-dihydroisobenzofuran-5-yl)-6-(hydroxymethyl)-tetrahydro-2H-pyran-3,4,5-triol]	7.25
CSc1ccc(C2OCc3ccc([C@@H]4O[C@H](CO)[C@@H](O)[C@H](O)[C@H]4O)cc32)cc1 (stereo partly drawn) [Example E102, (2R,3S,4R,5R,6S)-2-(Hydroxymethyl)-6-(3-(4-(methylthio)phenyl)-1,3-dihydroisobenzofuran-5-yl)-tetrahydro-2H-pyran-3,4,5-triol]	7.12
COc1ccc(Cc2cc([C@@H]3O[C@H](CO)[C@@H](O)[C@H](O)[C@H]3O)c3c(c2Cl)OCCO3)cc1 [Example E104, (2S,3R,4R,5S,6R)-2-(8-Chloro-7-(4-methoxybenzyl)-2,3-dihydrobenzo[b][1,4]dioxin-5-yl)-6-(hydroxymethyl)tetrahydro-2H-pyran-3,4,5-triol]	8.70
CCOc1ccc(Cc2cc([C@@H]3O[C@H](OC)[C@@H](O)[C@H](O)[C@H]3O)c(OC)cc2Cl)cc1 [Example E109, (2S,3R,4R,5S,6S)-2-(4-Chloro-5-(4-ethoxybenzyl)-2-methoxyphenyl)-6-methoxytetrahydro-2H-pyran-3,4,5-triol]	7.54
CCOc1ccc(Cc2cc([C@@H]3O[C@H](S(C)(=O)=O)[C@@H](O)[C@H](O)[C@H]3O)c(OC)cc2Cl)cc1 [Example E112, (2S,3R,4R,5S,6R)-2-(4-Chloro-5-(4-ethoxybenzyl)-2-methoxyphenyl)-6-(methylsulfonyl)tetrahydro-2H-pyran-3,4,5-triol]	8.13
C=CCOc1cc(Cl)c(Cc2ccc(OC)cc2)cc1[C@@H]1O[C@H](OC)[C@@H](O)[C@H](O)[C@H]1O [Example E115, (2S,3R,4R,5S,6S)-2-(2-(Allyloxy)-4-chloro-5-(4-methoxybenzyl)phenyl)-6-methoxytetrahydro-2H-pyran-3,4,5-triol]	8.15

The next compounds have a higher pIC50 than those just listed; values first:

pIC50	SMILES
8.74	OC[C@H]1O[C@@H](c2cc(Cc3ccc4c(c3)OCCO4)c(Cl)c3c2OCCO3)[C@H](O)[C@@H](O)[C@@H]1O [Example E103, (2S,3R,4R,5S,6R)-2-(8-Chloro-7-((2,3-dihydrobenzo[b][1,4]dioxin-6-yl)methyl)-2,3-dihydrobenzo[b][1,4]dioxin-5-yl)-6-(hydroxymethyl)tetrahydro-2H-pyran-3,4,5-triol]
8.86	C=Cc1ccc(Cc2cc([C@@H]3O[C@H](CO)[C@@H](O)[C@H](O)[C@H]3O)c3c(c2Cl)CCO3)cc1 [Example E119, (2S,3R,4R,5S,6R)-2-(4-Chloro-5-(4-vinylbenzyl)-2,3-dihydrobenzofuran-7-yl)-6-(hydroxymethyl)tetrahydro-2H-pyran-3,4,5-triol]
8.90	OC[C@H]1O[C@@H](c2cc(Cc3ccc4c(c3)OCCO4)c(C(F)F)c3c2CCC3)[C@H](O)[C@@H](O)[C@@H]1O [Example E108, (2S,3R,4R,5S,6R)-2-(7-(Difluoromethyl)-6-((2,3-dihydrobenzo[b][1,4]dioxin-6-yl)methyl)-2,3-dihydro-1H-inden-4-yl)-6-(hydroxymethyl)tetrahydro-2H-pyran-3,4,5-triol]
8.96	OC[C@H]1O[C@@H](c2cc(Cc3ccc(C4CC4)cc3)c(Cl)c3c2OCC3)[C@H](O)[C@@H](O)[C@@H]1O [Example E120, (2S,3R,4R,5S,6R)-2-(4-Chloro-5-(4-cyclopropylbenzyl)-2,3-dihydrobenzofuran-7-yl)-6-(hydroxymethyl)tetrahydro-2H-pyran-3,4,5-triol]
9.03	CCc1ccc(Cc2cc([C@@H]3O[C@H](CO)[C@@H](O)[C@H](O)[C@H]3O)c3c(c2Cl)OCCO3)cc1 [Example E105, (2S,3R,4R,5S,6R)-2-(8-Chloro-7-(4-ethylbenzyl)-2,3-dihydrobenzo[b][1,4]dioxin-5-yl)-6-(hydroxymethyl)tetrahydro-2H-pyran-3,4,5-triol]
9.07	Cc1c(Cc2ccc3c(c2)OCCO3)cc([C@@H]2O[C@H](CO)[C@@H](O)[C@H](O)[C@H]2O)c2c1CCC2 [Example E107, (2S,3R,4R,5S,6R)-2-(6-((2,3-Dihydrobenzo[b][1,4]dioxin-6-yl)methyl)-7-methyl-2,3-dihydro-1H-inden-4-yl)-6-(hydroxymethyl)tetrahydro-2H-pyran-3,4,5-triol]
9.07	OC[C@H]1O[C@@H](c2cc(Cc3ccc(C4CC4)cc3)c(Cl)c3c2OCCC3)[C@H](O)[C@@H](O)[C@@H]1O [Example E121, (2S,3R,4R,5S,6R)-2-(5-Chloro-6-(4-cyclopropylbenzyl)chroman-8-yl)-6-(hydroxymethyl)tetrahydro-2H-pyran-3,4,5-triol]
9.11	CCOc1ccc(Cc2cc([C@@H]3O[C@H](SC)[C@@H](O)[C@H](O)[C@H]3O)c(OC)cc2Cl)cc1 [Example E111, (2S,3R,4R,5S,6R)-2-(4-Chloro-5-(4-ethoxybenzyl)-2-methoxyphenyl)-6-(methylthio)tetrahydro-2H-pyran-3,4,5-triol]
9.13	C=Cc1ccc(Cc2cc([C@@H]3O[C@H](CO)[C@@H](O)[C@H](O)[C@H]3O)c3c(c2Cl)CCC3)cc1 [Example E117, (2S,3R,4R,5S,6R)-2-(7-Chloro-6-(4-vinylbenzyl)-2,3-dihydro-1H-inden-4-yl)-6-(hydroxymethyl)tetrahydro-2H-pyran-3,4,5-triol]
9.17	OC[C@H]1O[C@@H](c2cc(Cc3ccc(C4CC4)cc3)c(Cl)c3c2CCC3)[C@H](O)[C@@H](O)[C@@H]1O [Example E118, (2S,3R,4R,5S,6R)-2-(7-Chloro-6-(4-cyclopropylbenzyl)-2,3-dihydro-1H-inden-4-yl)-6-(hydroxymethyl)tetrahydro-2H-pyran-3,4,5-triol]
9.20	COc1cc(Cl)c(Cc2ccc3c(c2)OCCO3)cc1[C@@H]1O[C@H](SC)[C@@H](O)[C@H](O)[C@H]1O [Example E095, (2S,3R,4R,5S,6R)-2-(4-Chloro-5-((2,3-dihydrobenzo[b][1,4]dioxin-6-yl)methyl)-2-methoxyphenyl)-6-(methylthio)-tetrahydro-2H-pyran-3,4,5-triol]
9.21	OC[C@H]1O[C@@H](c2cc(Cc3ccc4c(c3)OCCO4)c(Cl)c3c2CCC3)[C@H](O)[C@@H](O)[C@@H]1O [Example E106, (2S,3R,4R,5S,6R)-2-(7-Chloro-6-((2,3-dihydrobenzo[b][1,4]dioxin-6-yl)methyl)-2,3-dihydro-1H-inden-4-yl)-6-(hydroxymethyl)tetrahydro-2H-pyran-3,4,5-triol]
9.26	COc1cc([C@@H]2O[C@H](SC)[C@@H](O)[C@H](O)[C@H]2O)cc(Cc2ccc3c(c2)OCCO3)c1Cl [Example E113, (2S,3R,4R,5S,6R)-2-(4-Chloro-3-((2,3-dihydrobenzo[b][1,4]dioxin-6-yl)methyl)-5-methoxyphenyl)-6-(methylthio)tetrahydro-2H-pyran-3,4,5-triol]
9.30	C=CCOc1cc(Cl)c(Cc2ccc(OC)cc2)cc1[C@@H]1O[C@H](SC)[C@@H](O)[C@H](O)[C@H]1O [Example E110, (2S,3R,4R,5S,6R)-2-(2-(Allyloxy)-4-chloro-5-(4-methoxybenzyl)phenyl)-6-(methylthio)tetrahydro-2H-pyran-3,4,5-triol]
9.32	CN(C)c1ccc(Cc2cc([C@@H]3O[C@H](CO)[C@@H](O)[C@H](O)[C@H]3O)c3c(c2Cl)CCC3)cc1 [Example E116, (2S,3R,4R,5S,6R)-2-(7-Chloro-6-(4-(dimethylamino)benzyl)-2,3-dihydro-1H-inden-4-yl)-6-(hydroxymethyl)tetrahydro-2H-pyran-3,4,5-triol]
9.34	CS[C@H]1O[C@@H](c2cc(Cc3ccc4c(c3)OCCO4)c(Cl)cc2O)[C@H](O)[C@@H](O)[C@@H]1O [Example E098, (2S,3R,4R,5S,6R)-2-(4-Chloro-5-((2,3-dihydrobenzo[b][1,4]dioxin-6-yl)methyl)-2-hydroxyphenyl)-6-(methylthio)-tetrahydro-2H-pyran-3,4,5-triol]
9.51	CCOc1ccc(Cc2cc([C@@H]3O[C@H](SC)[C@@H](O)[C@H](O)[C@H]3O)cc(OC)c2Cl)cc1 [Example E114, (2S,3R,4R,5S,6R)-2-(4-Chloro-3-(4-ethoxybenzyl)-5-methoxyphenyl)-6-(methylthio)tetrahydro-2H-pyran-3,4,5-triol]

Source: US9034921B2, “Diphenylmethane derivatives as SGLT2 inhibitors” (GREEN CROSS CORPORATION, priority 2011, dated 2015)
